In the supplement of paper PMC10702517:
± gives the standard deviation.

Tests used:
[1] = chemical recovery into PDMS from spiked human plasma; higher = better extraction; conditions: pooled human plasma, extraction method: PES with PDMS
[2] = chemical recovery from spiked human plasma; higher = better extraction; conditions: pooled human plasma
[3] = chemical recovery by SPE of plasma after PDMS sampling; higher = better extraction; conditions: pooled human plasma, extraction method: HLB SPE of plasma after PES
[4] = extraction method: SPE only (HLB 96-well)
[5] = extraction method: solvent precipitation (ACN + hexane)
[6] = extraction method: SPE only (HLB 96-well), PES comparison experiment
[7] = extraction method: PES+SPE (3 d PDMS equilibration then HLB SPE)
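For chemical recovery by SPE of plasma after PDMS sampling in this document: over 400 spiked chemicals quantified by LC-HRMS or GC-HRMS via internal standard calibration, recovery relative to spike mix added to unspiked plasma extract to correct matrix effects.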

## CC(=O)c1cc(C(C)(C)C)cc2c1CCC2(C)C [Celestolide]
[1]; equilibration time (d): 1
  chemical recovery into PDMS: 33.2 ± 0.97%
[1]; equilibration time (d): 3
  chemical recovery into PDMS: 37.6 ± 3.8%
[1]; equilibration time (d): 6
  chemical recovery into PDMS: 34.7 ± 3.6%
[2]; [4]
  chemical recovery: 1.5 ± 0.73%
[2]; [5]
  chemical recovery: 76.6 ± 27%

## CC1(C)CC(=O)CC(C)(C)N1 [2,2,6,6-Tetramethyl-4 piperidone]
[1]; equilibration time (d): 1
  chemical recovery into PDMS: 0.707 ± 0.49%
[1]; equilibration time (d): 3
  chemical recovery into PDMS: 1.17 ± 0.15%
[1]; equilibration time (d): 6
  chemical recovery into PDMS: 0.677 ± 0.17%
[3]; equilibration time (d): 1
  chemical recovery by SPE of plasma: 2.44 ± 4%
[3]; equilibration time (d): 6
  chemical recovery by SPE of plasma: 1.13 ± 0.92%

## O=S(=O)(c1ccc(Cl)cc1)c1ccc(Cl)cc1 [Bis(4-chlorophenyl)sulfone]
[1]; equilibration time (d): 1
  chemical recovery into PDMS: 41.4 ± 2.9%
[1]; equilibration time (d): 6
  chemical recovery into PDMS: 39.6 ± 14%
[2]; [4]
  chemical recovery: 4.65 ± 1.5%

## C/C(=C\c1ccccc1)c1ccccc1 [trans-a-Methylstilbene]
[1]; equilibration time (d): 3
  chemical recovery into PDMS: 97.6 ± 13%
[1]; equilibration time (d): 6
  chemical recovery into PDMS: 112 ± 44%

## C[C@]12CCC(=O)C=C1CC[C@@H]1[C@@H]2CC[C@@]2(C)[C@H]1CC[C@]2(C)O [17alpha-Methyltestosterone]
[1]; equilibration time (d): 1
  chemical recovery into PDMS: 34.6 ± 2.1%
[1]; equilibration time (d): 3
  chemical recovery into PDMS: 36.4 ± 2.9%
[1]; equilibration time (d): 6
  chemical recovery into PDMS: 37.6 ± 0.76%
[3]; equilibration time (d): 1
  chemical recovery by SPE of plasma: 7.99 ± 6.9%
[3]; equilibration time (d): 3
  chemical recovery by SPE of plasma: 12.4 ± 1.8%
[3]; equilibration time (d): 6
  chemical recovery by SPE of plasma: 7.08 ± 1.2%

## ClC=C(c1ccc(Cl)cc1)c1ccc(Cl)cc1 [4,4-DDMU]
[1]; equilibration time (d): 3
  chemical recovery into PDMS: 67.8 ± 4.7%
[1]; equilibration time (d): 6
  chemical recovery into PDMS: 62.3 ± 4.6%
[3]; equilibration time (d): 1
  chemical recovery by SPE of plasma: 11.4 ± 8%
[3]; equilibration time (d): 3
  chemical recovery by SPE of plasma: 12 ± 2.1%
[3]; equilibration time (d): 6
  chemical recovery by SPE of plasma: 11.5 ± 4.2%

## CCCCCCCCCCCCCC[N+](C)(C)Cc1ccccc1 [Benzyldimethyltetradecylammonium]
[1]; equilibration time (d): 6
  chemical recovery into PDMS: 0.508 ± 1%
[2]; [4]
  chemical recovery: 66.8 ± 24%

## C[C@@H]1C[C@H]2[C@@H]3CCC4=CC(=O)C=C[C@]4(C)[C@@]3(Cl)[C@@H](O)C[C@]2(C)[C@@]1(OC(=O)c1ccco1)C(=O)CCl [Mometasone fuorate]
[1]; equilibration time (d): 1
  chemical recovery into PDMS: 22.4 ± 3%
[1]; equilibration time (d): 3
  chemical recovery into PDMS: 29.4 ± 3.4%
[1]; equilibration time (d): 6
  chemical recovery into PDMS: 32.6 ± 2.6%
[2]; [6]
  chemical recovery: 32.8 ± 7.8%

## CC1C(C)(C)C2=C(C(=O)CCC2)C1(C)C (stereo not drawn) [Cashmeran]
[1]; equilibration time (d): 1
  chemical recovery into PDMS: 20.3 ± 6.3%
[1]; equilibration time (d): 3
  chemical recovery into PDMS: 23.2 ± 9.8%
[1]; equilibration time (d): 6
  chemical recovery into PDMS: 17.8 ± 2.9%
[2]; [6]
  chemical recovery: 2.88 ± 2%

## CCCCOP(=O)(O)OCCCC [Di-n-butyl phosphate]
[1]; equilibration time (d): 1
  chemical recovery into PDMS: 25.9 ± 1.5%
[1]; equilibration time (d): 3
  chemical recovery into PDMS: 31.1 ± 3.2%
[1]; equilibration time (d): 6
  chemical recovery into PDMS: 30.9 ± 1.4%
[2]; [7]
  chemical recovery: 42.2 ± 5%
[2]; [4]
  chemical recovery: 33.5 ± 3.3%
[2]; [5]
  chemical recovery: 67.8 ± 3.6%

## CC(C)c1ccc2sc3ccccc3c(=O)c2c1 [2-Isopropylthioxanthone]
[1]; equilibration time (d): 1
  chemical recovery into PDMS: 45.3 ± 4.8%
[1]; equilibration time (d): 3
  chemical recovery into PDMS: 48.5 ± 4.6%
[1]; equilibration time (d): 6
  chemical recovery into PDMS: 46.7 ± 2.5%
[2]; [4]
  chemical recovery: 33.5 ± 9.6%
[2]; [6]
  chemical recovery: 19.8 ± 4.6%

## CC(C)OC(=O)C(C)(C)Oc1ccc(C(=O)c2ccc(Cl)cc2)cc1 [Fenofibrate]
[1]; equilibration time (d): 1
  chemical recovery into PDMS: 47.1 ± 4.2%
[1]; equilibration time (d): 3
  chemical recovery into PDMS: 50.6 ± 5.3%
[1]; equilibration time (d): 6
  chemical recovery into PDMS: 48 ± 3.2%
[2]; [6]
  chemical recovery: 31.5 ± 6%

## CC1(C)[C@H](C=C(Cl)Cl)[C@H]1C(=O)OCc1c(F)c(F)cc(F)c1F [Transfluthrin]
[1]; equilibration time (d): 1
  chemical recovery into PDMS: 79.7 ± 14%
[1]; equilibration time (d): 3
  chemical recovery into PDMS: 113 ± 37%
[1]; equilibration time (d): 6
  chemical recovery into PDMS: 92.7 ± 12%
[2]; [4]
  chemical recovery: 0.85 ± 0.086%
[2]; [6]
  chemical recovery: 13.8 ± 3.7%
[2]; [5]
  chemical recovery: 31.9 ± 2.4%

## CC(=O)O[C@]1(C(C)=O)CC[C@H]2[C@@H]3C[C@H](C)C4=CC(=O)CC[C@]4(C)[C@H]3CC[C@@]21C [Medroxyprogesteroneacetate]
[1]; equilibration time (d): 1
  chemical recovery into PDMS: 41.5 ± 4.3%
[1]; equilibration time (d): 3
  chemical recovery into PDMS: 46.8 ± 1.9%
[1]; equilibration time (d): 6
  chemical recovery into PDMS: 43.4 ± 1.5%
[2]; [6]
  chemical recovery: 44.5 ± 8.6%

## COC(=O)N(C(=O)N1CO[C@@]2(C(=O)OC)Cc3cc(Cl)ccc3C2=N1)c1ccc(OC(F)(F)F)cc1 [Indoxacarb]
[1]; equilibration time (d): 1
  chemical recovery into PDMS: 52.6 ± 5.8%
[1]; equilibration time (d): 3
  chemical recovery into PDMS: 52 ± 9.1%
[1]; equilibration time (d): 6
  chemical recovery into PDMS: 53.2 ± 3.8%
[2]; [4]
  chemical recovery: 61.3 ± 15%
[2]; [6]
  chemical recovery: 38.3 ± 8.6%

## CO/N=C(/C(=O)OC)c1ccccc1CO/N=C(\C)c1cccc(C(F)(F)F)c1 [Trifloxystrobin]
[1]; equilibration time (d): 1
  chemical recovery into PDMS: 47.2 ± 4.1%
[1]; equilibration time (d): 3
  chemical recovery into PDMS: 47.8 ± 5.8%
[1]; equilibration time (d): 6
  chemical recovery into PDMS: 47.3 ± 3.1%
[2]; [4]
  chemical recovery: 48 ± 6.8%
[2]; [6]
  chemical recovery: 45.4 ± 8.7%

## COC(=O)N(OC)c1ccccc1COc1ccn(-c2ccc(Cl)cc2)n1 [Pyraclostrobin]
[1]; equilibration time (d): 1
  chemical recovery into PDMS: 46.4 ± 5.7%
[1]; equilibration time (d): 3
  chemical recovery into PDMS: 47.9 ± 3.8%
[1]; equilibration time (d): 6
  chemical recovery into PDMS: 46.6 ± 3.3%
[2]; [7]
  chemical recovery: 71.5 ± 8.6%
[2]; [4]
  chemical recovery: 48 ± 6.1%
[2]; [6]
  chemical recovery: 36.9 ± 5%

## CCOP(=S)(OCC)SCSP(=S)(OCC)OCC [Ethion]
[1]; equilibration time (d): 1
  chemical recovery into PDMS: 48.1 ± 8.9%
[1]; equilibration time (d): 3
  chemical recovery into PDMS: 47.4 ± 4.3%
[1]; equilibration time (d): 6
  chemical recovery into PDMS: 46.7 ± 1.1%
[2]; [4]
  chemical recovery: 37.2 ± 9.9%
[2]; [6]
  chemical recovery: 31.7 ± 5.8%

## CC(C)(C)C(O)C(Oc1ccc(Cl)cc1)n1cncn1 (stereo not drawn) [Triadimenol]
[1]; equilibration time (d): 1
  chemical recovery into PDMS: 39.4 ± 1.5%
[1]; equilibration time (d): 3
  chemical recovery into PDMS: 43.5 ± 3.8%
[1]; equilibration time (d): 6
  chemical recovery into PDMS: 43.6 ± 0.11%
[2]; [6]
  chemical recovery: 47.4 ± 7.7%
[2]; [5]
  chemical recovery: 68.9 ± 3.2%

## CC(COc1ccc(Oc2ccccc2)cc1)Oc1ccccn1 (stereo not drawn) [Pyriproxyfen]
[1]; equilibration time (d): 1
  chemical recovery into PDMS: 48.2 ± 4.8%
[1]; equilibration time (d): 3
  chemical recovery into PDMS: 50.9 ± 6.1%
[1]; equilibration time (d): 6
  chemical recovery into PDMS: 49.3 ± 2.8%
[2]; [4]
  chemical recovery: 39.7 ± 12%
[2]; [6]
  chemical recovery: 23 ± 4.6%

## Cc1ccc(OP(=O)(Oc2ccc(C)cc2)Oc2ccc(C)cc2)cc1 [Tricresylphosphate]
[1]; equilibration time (d): 1
  chemical recovery into PDMS: 54.2 ± 6.3%
[1]; equilibration time (d): 3
  chemical recovery into PDMS: 56.1 ± 5.2%
[1]; equilibration time (d): 6
  chemical recovery into PDMS: 54 ± 3.2%
[2]; [4]
  chemical recovery: 44.8 ± 12%
[2]; [6]
  chemical recovery: 25.4 ± 4.9%

## CC=CC(=O)N(CC)c1ccccc1C [Crotamiton]
[1]; equilibration time (d): 6
  chemical recovery into PDMS: 36.1 ± 0.56%
[2]; [4]
  chemical recovery: 37 ± 4.8%
[2]; [6]
  chemical recovery: 36.1 ± 7.8%
[2]; [5]
  chemical recovery: 56.3 ± 3.9%

## CC(C)Oc1cc(-n2nc(C(C)(C)C)oc2=O)c(Cl)cc1Cl [Oxadiazone]
[1]; equilibration time (d): 1
  chemical recovery into PDMS: 39.1 ± 3.5%
[1]; equilibration time (d): 3
  chemical recovery into PDMS: 40.4 ± 3.1%
[1]; equilibration time (d): 6
  chemical recovery into PDMS: 37.8 ± 2.7%
[2]; [4]
  chemical recovery: 43.6 ± 4.8%
[2]; [6]
  chemical recovery: 34.7 ± 5.2%

## N#CSCSc1nc2ccccc2s1 [(Benzothiazol-2-ylthio)methyl thiocyanate]
[1]; equilibration time (d): 1
  chemical recovery into PDMS: 24.8 ± 3.2%
[1]; equilibration time (d): 3
  chemical recovery into PDMS: 11 ± 4%
[1]; equilibration time (d): 6
  chemical recovery into PDMS: 13.3 ± 4.5%
[2]; [6]
  chemical recovery: 33.5 ± 7.2%

## CC(=O)[C@H]1CC[C@H]2[C@@H]3CCC4=CC(=O)CC[C@]4(C)[C@H]3CC[C@]12C [Progesterone]
[1]; equilibration time (d): 1
  chemical recovery into PDMS: 47.3 ± 3.5%
[1]; equilibration time (d): 3
  chemical recovery into PDMS: 50.6 ± 4.3%
[1]; equilibration time (d): 6
  chemical recovery into PDMS: 48.2 ± 0.51%
[2]; [6]
  chemical recovery: 45.7 ± 9.4%

## O=S1OC[C@@H]2[C@H](CO1)[C@]1(Cl)C(Cl)=C(Cl)[C@]2(Cl)C1(Cl)Cl (stereo partly drawn) [beta-Endosulfan]
[1]; equilibration time (d): 1
  chemical recovery into PDMS: 60.6 ± 7.8%
[1]; equilibration time (d): 3
  chemical recovery into PDMS: 77.8 ± 18%
[1]; equilibration time (d): 6
  chemical recovery into PDMS: 80.6 ± 18%
[2]; [4]
  chemical recovery: 3.92 ± 1.1%
[2]; [6]
  chemical recovery: 15.9 ± 3.6%
[2]; [5]
  chemical recovery: 17.7 ± 8.9%

## O=C(O)C(F)(F)C(F)(F)C(F)(F)C(F)(F)C(F)(F)C(F)(F)F [Perfluoroheptanoic acid]
[1]; equilibration time (d): 1
  chemical recovery into PDMS: 0.0266 ± 0.023%
[1]; equilibration time (d): 3
  chemical recovery into PDMS: 0.00647 ± 0.017%
[1]; equilibration time (d): 6
  chemical recovery into PDMS: 0.0383 ± 0.0028%
[2]; [7]
  chemical recovery: 34.1 ± 2.9%
[2]; [4]
  chemical recovery: 27.1 ± 4.2%
[2]; [6]
  chemical recovery: 39.8 ± 8.7%
[2]; [5]
  chemical recovery: 85.3 ± 16%

## CCOC(=O)NCCOc1ccc(Oc2ccccc2)cc1 [Fenoxycarb]
[1]; equilibration time (d): 1
  chemical recovery into PDMS: 52.1 ± 2.8%
[1]; equilibration time (d): 3
  chemical recovery into PDMS: 54.3 ± 4.4%
[1]; equilibration time (d): 6
  chemical recovery into PDMS: 52.2 ± 7.9%
[2]; [5]
  chemical recovery: 72 ± 7.2%

## O=C1C2CC3C1C1(Cl)C(Cl)C4(Cl)C2C3C1(Cl)C4(Cl)Cl (stereo not drawn) [Endrinketone]
[1]; equilibration time (d): 1
  chemical recovery into PDMS: 75.4 ± 13%
[1]; equilibration time (d): 3
  chemical recovery into PDMS: 90.3 ± 7%
[1]; equilibration time (d): 6
  chemical recovery into PDMS: 87.5 ± 2.9%

## CC(C)COP(=O)(OCC(C)C)OCC(C)C [Tri-isobutylphosphate]
[1]; equilibration time (d): 1
  chemical recovery into PDMS: 37.6 ± 1.3%
[1]; equilibration time (d): 3
  chemical recovery into PDMS: 39.9 ± 4.4%
[1]; equilibration time (d): 6
  chemical recovery into PDMS: 39.9 ± 2.7%
[2]; [6]
  chemical recovery: 31.3 ± 5.5%
